The series deals with acute lymphocytic leukemia (ALL), Philadelphia chromosome positive, with bone marrow failure. Description: Rifampicin treatment of a single patient with relapsed acute lymphocytic leukemia and end stage bone marrow failure. Format: in vivo, human. How it is done:
The single leukemia patient studied, and reported here, was a person who presented with acute lymphocytic leukemia (ALL), Philadelphia chromosome positive, who was converted to remission with a stem cell transplant from a matching sibling. Within one year, the leukemia reverted to an active form, and they were treated with all anti-leukemic agents known, and these included several experimental agents from MD Anderson Hospital in Houston.
They developed diabetes associated with steroids, and right maxillary sinus infection with a species of Mucorales. They underwent debridement of their sinus, with removal of bone and tissue up to the floor of the […] orbit. The sense of smell had been lost during the mucor infection. Their condition worsened in the Houston hospital. They developed bone marrow failure, and was transferred by air ambulance in a bed to their home in the Chicago area with instructions for terminal hospice care. They were bedridden, unable to sit up, and appeared moribund.
The laboratory findings at that time included:
The present inventor, who is a physician, is a cousin of the patient. After informed consent, which included a description of the experience of the inventor, the patient was started on rifampicin (rifampin) 600 mg daily not within 2½ hours of meals. This treatment was not part of any protocol, but was a private request to the inventor.

[1] abbreviates: single ALL patient, rifampicin 600 mg daily.
[2] abbreviates: single ALL patient, rifampicin 600 mg daily, time after start of treatment.

A value given as a limit tells only on which side of the number the result lay.

Regarding Rifampicin, the “white cell levels (mature leukocytes and lymphocytes)” value (approximately 5 weeks after treatment began, rifampicin 600 mg daily) was “continued at normal levels”. Besides, the “platelet counts over time (FIG. 3)” value (patient presenting with acute lymphocytic leukemia treated with rifampicin) is “increase in platelet counts over time”. The “white cell counts over time (FIG. 4)” value (same patient and time course as FIG. 3) is given as “increase in white cell counts”. For the same substance, under setting [1], the “clinical condition (strength, sitting, standing, short walks)” value is “marked clinical improvement” and the “platelet drop leading to temporary discontinuation (suspected platelet agglutination)” value is listed as “transient drop in platelets”. For the same substance, under setting [2], the “time until patient began to show bone marrow recovery” value is on record as no more than 2 weeks and the “time until significant parameters of bone marrow remission had developed” value is given as no more than 6 weeks. For the same substance, the “platelets, level reached on treatment” value (single ALL patient, rifampicin 600 mg daily, 11K before treatment) amounted to 48 K.

Source of the values: patent publication US8642613B2, “Treatment for leukemia and idiopathic aplastic anemia” (Sphingomonas Research Partners, L.P., priority 2008, dated 2014).
